This note sets out measurements from patent publication US20100075370A1, “METHOD FOR DETERMINATION OF CELL VIABILITY BY USING FLOW CYTOMETRY WITH FIXED VOLUME ACQUISITION” (TUMORTEC GMBH, priority 2006, published 2010).

Each structure is given as a SMILES string.

The test system of the assay is Peripheral blood mononuclear cells (pBMC) from a patient with chronic lymphatic leukaemia. In words: Cytotoxicity of fludarabine phosphate on mononuclear cells, flow cytometry with fixed volume acquisition (PI exclusion). Particulars: 96 h; for relative cell survival: 100% = without fludarabine phosphate. In kind it is cell-based, human. The protocol:
The peripheral blood mononuclear cells (pBMC) used in the examples were isolated from peripheral blood samples as described before (Staib, P. et al., Br. J. Haematol., 128(6):783-91 (2005)). The necessary peripheral blood (PB) samples from adult patients diagnosed with chronic lymphatic leukaemia (CLL) were collected into heparin during routine diagnosis prior to administration of chemotherapy.
Plate precoating with different amounts of fludarabine phosphate: 50 μl/well of an aqueous fludarabine phosphate solution were given in a 96-well microtiter plate (Greiner BioOne, Frickenhausen, Germany). Four different fludarabine phosphate concentrations (25; 8.33; 2.78; 0.93 μg/ml) were used. The control wells were kept empty. The plates were placed into an exsiccator and dried under vacuum for 8 h.
Peripheral blood mononuclear cells (pBMC) from a patient with chronic lymphatic leukaemia were isolated from the PB samples as described before (Staib, P. et al., Br. J. Haematol., 128(6):783-91 (2005)), resuspended in RPMI 1640 medium (Biochrom, Berlin, Germany) containing 20 vol. % fetal calf serum (FCS; Biochrom, Berlin, Germany) and added into the precoated 96-well plate with a final cell concentration of 10,000 cells/well and a volume of 100 μl. The plates were then agitated for 15 min in order to solubilize the dried fludarabine phosphate. Subsequently, the plates were incubated for 96 h (37° C., 5% CO2, humidified atmosphere). Thereafter, 50 μl of an 11 μM propidium iodide (PI)-solution in 0.9% aqueous NaCl solution (NaCl 0.9%) (Invitrogen, Leiden, Netherlands) were added and incubated for 15 min at room temperature. PI is a standard flow cytometric viability probe and is used to distinguish viable from nonviable cells. Viable cells with intact membranes exclude PI, whereas the membranes of dead and damaged cells are permeable to PI. PI only stains cells with compromised cell membrane, whilst live cells which have intact membranes are not stained by PI.
The plates were then analyzed using a FACSArray (BD Biosciences, San Jose, Calif., USA) flow cytometer. The following instrument settings were used:
2.0 μl/s sample flow rate
20 μl sample volume (n. b.: this is no absolute amount, but the set value of the instrument. Thus, the actual volume aspirated and analyzed by the instrument may be higher or lower than 20 μl: however, this actual volume is invariant from sample to sample during the analysis.)
500,000 maximum events (i.e. the number of maximum events exceeds the actual cell number in the sample considerably)
An identical fixed volume (preset sample volume on instrument: 20 μl) was aspirated from each sample and the absolute amount of living cells was counted. Living cells were defined as events with cellular light scatter characteristics and being negative for PI.
After switch-on and before analyzing a new kind of sample the flow cytometer must be re-calibrated. […] In addition cut-off values can be defined. Signals below this cut-off will be excluded from data acquisition. All cells with signal intensities above the cut-off are counted. The rectangle shown in FIG. 1 defines an area of signal intensities (FSC signal and PI signal) that is suitable for counting viable cells. All cells within this rectangle are counted.
In general terms: In flow cytometry, cells or beads pass a laser one at a time.

Setting [1] is: 12.50 μg/ml final concentration.

For the compound `Nc1nc(F)nc2c1ncn2[C@@H]1O[C@H](COP(=O)(O)O)[C@@H](O)[C@@H]1O` [Fludarabine phosphate, 2-Fluoro-9-(5-O-phosphono-β-D-arabinofuranosyl)-9H-purin-6-amine], the “Total living cells counted in the fixed volume” value is 1,725 (0.46 μg/ml final concentration), 758 (1.39 μg/ml final concentration), 347 (4.17 μg/ml final concentration) and 186 under setting [1]. Also, the relative cell survival (0.46 μg/ml final concentration) is 41%; the relative cell survival (1.39 μg/ml final concentration) came to 18%; the relative cell survival (4.17 μg/ml final concentration) stood at 8%; the relative cell survival under setting [1] was found to be 4%; the relative cell survival (12.50 μg/ml final concentration, listed as fludarabine phosphate) turned out to be 4%.
